Measurements as given in PubChem BioAssay (NCI).
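Interpolation was linear, between the two tested concentrations surrounding the appropriate level; five concentrations were tested over 48 hours in 96-well plates. The concentration for 50% growth inhibition is given as GI50. TGI is the concentration that stops growth completely.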

Key:
Test in all cases: DTP human tumour cell line panel, 48 h
SW-620 colon = system: SW-620 colon
UACC-257 melanoma = system: UACC-257 melanoma
RXF 393 renal = system: RXF 393 renal
OVCAR-4 ovarian = system: OVCAR-4 ovarian
OVCAR-8 ovarian = system: OVCAR-8 ovarian
SK-MEL-28 melanoma = system: SK-MEL-28 melanoma
UACC-62 melanoma = system: UACC-62 melanoma
DU-145 prostate = system: DU-145 prostate

Structure (SMILES) | GI50 (SW-620 colon) | TGI (SW-620 colon) [µM] | GI50 (UACC-257 melanoma) [µM] | TGI (UACC-257 melanoma) [µM] | GI50 (RXF 393 renal) | TGI (RXF 393 renal) [µM] | GI50 (OVCAR-4 ovarian) | TGI (OVCAR-4 ovarian) [µM] | GI50 (OVCAR-8 ovarian) | TGI (OVCAR-8 ovarian) [µM] | GI50 (SK-MEL-28 melanoma) | TGI (SK-MEL-28 melanoma) [µM] | GI50 (UACC-62 melanoma) [µM] | TGI (UACC-62 melanoma) [µM] | GI50 (DU-145 prostate) [µM] | TGI (DU-145 prostate) [µM]
O=[N+]([O-])c1cc2c(ccc3occc32)o1 | 3.17 µM | > 100 | 1.77 | 3.88 | 1.49 µM | 3.17 | 27.2 µM | > 100 | 2.45 µM | 21 | 2.17 µM | 6.27 | 1.45 | 3.41 | 1.16 | 9.84
COc1cc2c(cc1OCCCCCn1c3ccccc3c3ccccc31)N=C[C@@H]1CCCN1C2=O | – | – | 2.29 | 5.85 | 4.34 µM | 16.4 | 3.09 µM | 12.6 | 2.56 µM | 7.17 | 1.8 µM | 3.5 | 1.86 | 3.8 | 2.23 | 4.67
NS(=O)(=O)c1ccc(N2N=C(c3cccs3)CC2c2ccccc2O)cc1 (stereo not given) | 1.16 µM | 4.83 | 1.47 | 7.97 | 0.733 µM | 2.2 | 2.88 µM | > 33.3 | 0.907 µM | 2.78 | 2.12 µM | 8.62 | 1.15 | 5.09 | 0.903 | 2.33
O=CN1N=C(c2ccc(Nc3ccnc4cc(Cl)ccc34)cc2)CC1c1ccc(Cl)cc1 (stereo not given) | 0.478 µM | > 100 | > 100 | > 100 | 1.88 µM | > 100 | 6.48 µM | > 100 | 3.22 µM | > 100 | 0.758 µM | > 100 | 0.567 | > 100 | 1.94 | > 100
Cn1ncnc1C1c2n[nH]c(=O)c3cc(F)cc(c23)NC1c1ccc(F)cc1 (stereo not given) | > 41 µM | > 100 | > 100 | > 100 | 22.2 µM | > 100 | 12.7 µM | > 100 | > 100 µM | > 100 | > 100 µM | > 100 | > 100 | > 100 | 4.14 | > 100
Nc1cc(-c2ccccc2)n(C(=O)Nc2ccc(Oc3ccccc3)cc2)n1 | > 100 µM | > 100 | 84.5 | > 100 | 23 µM | 68.3 | 2.91 µM | 27 | 20.1 µM | 57.1 | 1.62 µM | 39.2 | > 100 | > 100 | > 100 | > 100
COc1cc(-c2oc3c(OC)c(O)cc(O)c3c(=O)c2OC)ccc1O | – | > 100 | – | > 94.2 | – | 51.5 | – | 87.7 | – | > 100 | – | > 100 | – | 24.6 | – | > 81.5
COC1OC(C(C)O)C2OC(C)(C)OC12 (stereo not given) | – | > 100 | – | > 100 | – | – | – | > 100 | – | > 100 | – | > 100 | – | > 100 | – | > 100
Cc1ccc([N+](=O)[O-])c2c(NCCC[N+](C)(C)[O-])ccnc12 | – | > 100 | – | 69.8 | – | > 100 | – | 59.2 | – | > 100 | – | > 100 | – | – | – | > 100
CCCC(CCC)C(=O)OCC1(CO)C/C(=C\c2ccc(C(F)(F)F)cc2)C(=O)O1 (stereo not given) | 8.64 µM | 21.8 | 18.1 | 33.4 | 16.6 µM | 37.8 | 17.9 µM | 34.4 | 21 µM | 41 | 15.5 µM | 29.2 | 11 | 27.1 | 13.4 | 27.8
Clc1ccc(/C=C/c2nc(Cl)c(-c3ccc(Cl)cc3)c(Cl)n2)cc1 | – | > 100 | – | > 100 | – | > 100 | – | > 100 | – | > 100 | – | > 100 | – | > 100 | – | > 100
Cc1c(C(N)=O)sc2c1c(=O)n(Cc1ccccc1)c1nnc(S(=O)(=O)CC(=O)Nc3ccc(Cl)cc3)n21 | 4.87 µM | 20.4 | 2.68 | 7.88 | 2.41 µM | 7.13 | 1.93 µM | 5.47 | 3.69 µM | 15.6 | 2.98 µM | 8.45 | 4.21 | 18.7 | 7.29 | 36.7
CN(CCCN(C)CCC1CCCCC1)CCC1CCCCC1 | 2.28 µM | 6.84 | 0.291 | 0.876 | 0.946 µM | 3.54 | 3.35 µM | 14.6 | 4.85 µM | 18.4 | 1.91 µM | 3.41 | 0.888 | 2.39 | 8.51 | 20.8
COc1ccc(C=C2C(=O)NC(=O)NC2=O)cc1OCc1ccccc1 | 50.7 µg/mL | – | – | – | 12 µg/mL | – | 35.6 µg/mL | – | 57.3 µg/mL | – | 65.7 µg/mL | – | – | – | – | –
CC1=NN(C(=O)c2nn(-c3ccc(Cl)cc3)cc2O)C(=O)C1 | 4.55 µM | > 100 | 6.27 | 28.9 | 2.18 µM | > 76.6 | 3 µM | > 100 | 1.49 µM | > 100 | 9.13 µM | > 100 | 2.28 | > 80.8 | 8.08 | > 100
CN(C)c1ncnc2c1ccn2C1OC(CO)C(O)C1O (stereo not given) | 2.55 µM | > 100 | > 100 | > 100 | 18.1 µM | > 100 | 2.02 µM | 38.4 | 0.89 µM | 6.81 | > 100 µM | > 100 | > 100 | > 100 | 0.386 | 2.94
CC(=O)n1c(-c2ccc(Cl)c(Cl)c2)cn(-c2ccc(Cl)cc2)c1=O | 30.9 µM | > 100 | 22.4 | 66.8 | 11.4 µM | 27 | 20 µM | 57.7 | 23.1 µM | 76.5 | > 100 µM | > 100 | 19.8 | 55.8 | 17.4 | 45.8
